Source: patent publication US20200268707A1, “METHODS OF MODULATING PROTEIN EXOCYTOSIS AND USES OF SAME IN THERAPY” (Yeda Research and Development Co. Ltd., priority 2016, published 2020)

System: multiple myeloma cells (5TGM1) in mice
Experiment: In vivo multiple myeloma model, mice injected with 5TGM1 cells
Settings: 80 μM monensin in drinking water for 5 days
Method: 5TMM mice, a breed of C57BL/KalwRij mice that are sensitive to MM, were injected with 5TGM1 murine MM cell line and blood levels of IgG2B were measured periodically over 32 days by ELISA. Mice were split into 2 groups, the control group received 0.35% ethanol in drinking water while the test group received 80 μM monensin (initially solubilized in 70% ethanol) in drinking water. Mice were sacrificed after 5 days of treatment. Spleens and bone marrow were harvested, homogenized and analyzed by FACS.
In view of the above-results that inhibition of secretion may provide a novel therapeutic opportunity in MM, it was tested whether monensin treatment may inhibit progression of MM disease. To this end, mice were injected with 5TGM1 cells (FIG. 13F) and followed MM progression by monitoring blood levels of IgG2β by ELISA (FIG. 13G). Mice that developed MM were then administered with 80 μM monensin in the drinking water for 5 days.

**Q.** Which results are given for `CC[C@@]1([C@@H]2O[C@@H]([C@H]3O[C@@](O)(CO)[C@H](C)C[C@@H]3C)C[C@@H]2C)CC[C@H]([C@]2(C)CC[C@]3(C[C@H](O)[C@@H](C)[C@@H]([C@@H](C)[C@@H](OC)[C@H](C)C(=O)O)O3)O2)O1` [monensin]?
**A.** spleen size smaller than that of control mice: ~30%; CD138+, CD19− multiple myeloma cells in the spleen (control 22%): 8%; CD138+, CD19− multiple myeloma cells in bone marrow (BM) (control 62): 25%; CD138-, CD19+ normal B-cell levels (both spleen and BM): higher than in the control group
